Results: US11319299B2, “Substituted carboxamides as inhibitors of WDR5 protein-protein binding” (PROPELLON THERAPEUTICS INC., priority 2016, dated 2022)
Read-outs that look alike come from different tables or passages of the source.

Assays:
WDR5 = WDR5 (Homo sapiens (Human), UniProt P61964); experiment: Surface Plasmon Resonance (SPR) assay, KD and residence time; format: binding; conditions: for Kd: read-out: WDR5 binding affinity (KD)
MV4-11 cells = experiment: Cell proliferation assay (ATPlite); format: cell-based; conditions: MV-411 cells, five days, read-out: In vitro whole cell potency in MV-411 cells, (IC50)
Procedure: (iv) Cell Proliferation Assay
MV4-11 cells were seeded into a 96-well plate at 1,000 cells/well in 150 μl medium (Alpha-MEM containing 10% FBS, 100 μg/ml Normocin, and 50 μg/ml Gentamycin, Invitrogen). A HP D300 digital dispenser was used to dose cells with DMSO or test compounds across a 10-point range of concentrations (high dose of 10 μM), and cultures were grown in a humidified 5% CO2 incubator at 37° C. After five days, plates were removed from the incubator and equilibrated to room temperature. An equal volume of ATPlite assay reagent was added to each well, and samples were processed according to manufacturer's instructions (Perkin Elmer). Luminescent signal was measured using an Envision plate reader equipped with a US-Luminescence detector.

[1] = surface plasmon resonance (SPR)
[2] = surface plasmon resonance (SPR) assay

Row | Compound | Kd (WDR5; [1]) [nM] | IC50 (MV4-11 cells) [nM] | IC50 (MV4-11 cells; Homo sapiens, MV4-11, 120 h) [nM] | Kd (WDR5; [2]) [nM] | residence time (WDR5; τ=1/koff, Table 2, read-out: Residence Time (t, min)) [min]
1 | 4-(difluoromethyl)-N-[4-fluoro-5-[2-[(3R)-3-methylmorpholin-4-yl]pyrimidin-5-yl]-2-[(3S,5R)-3,4,5-trimethylpiperazin-1-yl]phenyl]-6-oxo-1H-pyridine-3-carboxamide [Example 521] | 0.579 | 68 |  |  | 
2 | C[C@@H]1CN(c2cc(F)c(-c3cnc(N4CCO[C@@H](C)C4)nc3)cc2NC(=O)c2cn(C)c(=O)cc2C(F)(F)F)C[C@H](C)N1C (racemic) [Example 451, N-[4-fluoro-5-[2-[(2R)-2-methylmorpholin-4-yl]pyrimidin-5-yl]-2-[(3S,5R)-3,4,5-trimethylpiperazin-1-yl]phenyl]-1-methyl-6-oxo-4-(trifluoromethyl)pyridine-3-carboxamide] | 1.72 |  | 92 |  | 
3 | CC1CN(c2cc(F)c(-c3cnc(N4C[C@@H](C)O[C@@H](C)C4)nc3)cc2NC(=O)c2c[nH]c(=O)cc2C(F)(F)F)CCN1C (stereo in doubt) [Example 202, N-[4-fluoro-5-[2-[(2R,6S)-2,6-dimethylmorpholin-4-yl]pyrimidin-5-yl]-2-[(3R)-3,4-dimethylpiperazin-1-yl]phenyl]-6-oxo-4-(trifluoromethyl)-1H-pyridine-3-carboxamide] |  |  | 20 | 0.434 | 
4 | CC1CN(c2cc(F)c(-c3cnc(N4CCN(C)CC4)nc3)cc2NC(=O)c2cn(C)c(=O)cc2C(F)(F)F)CCN1C (stereo in doubt) [Example 279, N-[4-fluoro-5-[2-(4-methylpiperazin-1-yl)pyrimidin-5-yl]-2-[(3R)-3,4-dimethylpiperazin-1-yl]phenyl]-1-methyl-6-oxo-4-(trifluoromethyl)pyridine-3-carboxamide] |  |  | 118 | 2.08 | 
5 | CC(C)C1CN(c2ncc(-c3cc(NC(=O)c4c[nH]c(=O)cc4C(F)(F)F)c(N4C[C@@H](C)N(C)[C@@H](C)C4)cc3F)cn2)CCO1 (stereo in doubt) [Example 348, N-[4-fluoro-5-[2-[(2R)-2-propan-2-ylmorpholin-4-yl]pyrimidin-5-yl]-2-[(3S,5R)-3,4,5-trimethylpiperazin-1-yl]phenyl]-6-oxo-4-(trifluoromethyl)-1H-pyridine-3-carboxamide] |  |  | 42 | 2.28 | 
6 | C[C@@H]1CN(c2ncc(-c3cc(NC(=O)c4c[nH]c(=O)cc4C(F)F)c(N4CCN(C)[C@H](C)C4)cc3F)cn2)CCO1 (stereo in doubt) [Example 398, 4-(difluoromethyl)-N-[4-fluoro-2-[(3R)-3,4-dimethylpiperazin-1-yl]-5-[2-[(2R)-2-methylmorpholin-4-yl]pyrimidin-5-yl]phenyl]-6-oxo-1H-pyridine-3-carboxamide] | 0.899 |  | 44 |  | 
7 | CC1CN(c2cc(F)c(-c3cnc(N4CCOCC4)nc3)cc2NC(=O)c2c[nH]c(=O)cc2C(F)F)CCN1C (stereo in doubt) [Example 410, 4-(difluoromethyl)-N-[4-fluoro-5-(2-morpholin-4-ylpyrimidin-5-yl)-2-[(3R)-3,4-dimethylpiperazin-1-yl]phenyl]-6-oxo-1H-pyridine-3-carboxamide] | 0.84 |  | 63 |  | 
8 | CCN(C)C1CCN(c2cc(F)c(-c3cnc(N4C[C@@H](C)O[C@@H](C)C4)nc3)cc2NC(=O)c2c[nH]c(=O)cc2C(F)(F)F)C1 (stereo in doubt) [Example 418, N-[4-fluoro-5-[2-[(2R,6S)-2,6-dimethylmorpholin-4-yl]pyrimidin-5-yl]-2-[(3S)-3-[ethyl(methyl)amino]pyrrolidin-1-yl]phenyl]-6-oxo-4-(trifluoromethyl)-1H-pyridine-3-carboxamide] | 1.05 |  | 70 |  | 
9 | C[C@@H]1CN(c2ncc(-c3cc(NC(=O)c4ccc(F)cc4C(F)(F)F)c(N4CCN(C)[C@H](C)C4)cc3F)cn2)CCO1 (stereo in doubt) [Example 452, 4-fluoro-N-[4-fluoro-2-[(3R)-3,4-dimethylpiperazin-1-yl]-5-[2-[(2R)-2-methylmorpholin-4-yl]pyrimidin-5-yl]phenyl]-2-(trifluoromethyl)benzamide] | 0.493 |  | 62 |  | 
10 | CC1CN(c2cc(F)c(-c3cnc(N4CCNCC4)nc3)cc2NC(=O)c2cn(C)c(=O)cc2C(F)(F)F)CCN1C (stereo in doubt) [Example 464, N-[4-fluoro-5-(2-piperazin-1-ylpyrimidin-5-yl)-2-[(3R)-3,4-dimethylpiperazin-1-yl]phenyl]-1-methyl-6-oxo-4-(trifluoromethyl)pyridine-3-carboxamide] | 2.21 |  | 49 |  | 
11 | C[C@@H]1CN(c2nccc(-c3cc(NC(=O)c4c[nH]c(=O)cc4C(F)(F)F)c(N4CCN(C)[C@H](C)C4)cc3F)n2)CCO1 (stereo in doubt) [Example 593, N-[4-fluoro-2-[(3R)-3,4-dimethylpiperazin-1-yl]-5-[2-[(2R)-2-methylmorpholin-4-yl]pyrimidin-4-yl]phenyl]-6-oxo-4-(trifluoromethyl)-1H-pyridine-3-carboxamide] | 0.737 |  | 14 |  | 
12 | C[C@@H]1CN(c2cc(F)c(-c3cnc(N4CCOCC4)nc3)cc2NC(=O)c2c[nH]nc2C(F)(F)F)C[C@H](C)N1C [Example 42, N-[4-fluoro-5-(2-morpholin-4-ylpyrimidin-5-yl)-2-[(3R,5S)-3,4,5-trimethylpiperazin-1-yl]phenyl]-3-(trifluoromethyl)-1H-pyrazole-4-carboxamide] |  |  | 428 |  | 3.45
13 | C[C@@H]1CN(c2cc(F)c(-c3ccc4c(c3)OCO4)cc2NC(=O)c2c[nH]c(=O)cc2C(F)(F)F)C[C@H](C)N1C [Example 63, N-[5-(1,3-benzodioxol-5-yl)-4-fluoro-2-[(3R,5S)-3,4,5-trimethylpiperazin-1-yl]phenyl]-6-oxo-4-(trifluoromethyl)-1H-pyridine-3-carboxamide] |  |  | 206 | 0.694 | 
14 | C[C@@H]1CN(c2cc(F)c(-c3ccnc(N(C)C)n3)cc2NC(=O)c2c[nH]c(=O)cc2C(F)(F)F)C[C@H](C)N1C [Example 540, N-[5-[2-(dimethylamino)pyrimidin-4-yl]-4-fluoro-2-[(3R,5S)-3,4,5-trimethylpiperazin-1-yl]phenyl]-6-oxo-4-(trifluoromethyl)-1H-pyridine-3-carboxamide] |  |  | 27 |  | 

Continued by falling IC50 (MV4-11 cells; Homo sapiens, MV4-11, 120 h), values first:

Row | Kd (WDR5; [1]) [nM] | IC50 (MV4-11 cells) [nM] | IC50 (MV4-11 cells; Homo sapiens, MV4-11, 120 h) [nM] | Kd (WDR5; [2]) [nM] | residence time (WDR5; τ=1/koff, Table 2, read-out: Residence Time (t, min)) [min] | Compound
15 |  |  | 366 | 0.199 |  | CC(=O)Nc1ccc(-c2cc(NC(=O)c3c[nH]c(=O)cc3C(F)(F)F)c(N3C[C@@H](C)N(C)[C@@H](C)C3)cc2F)cn1 [Example 64, N-[5-(6-acetamidopyridin-3-yl)-4-fluoro-2-[(3R,5S)-3,4,5-trimethylpiperazin-1-yl]phenyl]-6-oxo-4-(trifluoromethyl)-1H-pyridine-3-carboxamide]
16 |  |  | 149 | 1.19 |  | CC1CN(c2cc(F)c(-c3cnc(N4C[C@@H](C)O[C@@H](C)C4)nc3)cc2NC(=O)c2cn(C)c(=O)cc2C(F)F)CCN1C (stereo in doubt) [Example 383, 4-(difluoromethyl)-N-[4-fluoro-5-[2-[(2R,6S)-2,6-dimethylmorpholin-4-yl]pyrimidin-5-yl]-2-[(3R)-3,4-dimethylpiperazin-1-yl]phenyl]-1-methyl-6-oxopyridine-3-carboxamide]
17 |  |  | 52 | 1.97 |  | CC1CN(c2cc(F)c(-c3ccc(N4C[C@@H](C)O[C@@H](C)C4)nc3)cc2NC(=O)c2c[nH]c(=O)cc2C(F)(F)F)CCN1C (stereo in doubt) [Example 341, N-[4-fluoro-5-[6-[(2R,6S)-2,6-dimethylmorpholin-4-yl]pyridin-3-yl]-2-[(3R)-3,4-dimethylpiperazin-1-yl]phenyl]-6-oxo-4-(trifluoromethyl)-1H-pyridine-3-carboxamide]
18 | 0.296 |  | 49 |  |  | C[C@@H]1CN(c2ncc(-c3cc(NC(=O)c4ccc(F)cc4C(F)(F)F)c(N4CCN(C)[C@@H](C)C4)cc3F)cn2)C[C@H](C)O1 (racemic) [Example 430, 4-fluoro-N-[4-fluoro-5-[2-[(2R,6S)-2,6-dimethylmorpholin-4-yl]pyrimidin-5-yl]-2-[(3R)-3,4-dimethylpiperazin-1-yl]phenyl]-2-(trifluoromethyl)benzamide]
19 |  |  | 44 | 0.681 |  | CC1CN(c2cc(F)c(-c3cnc(C#N)nc3)cc2NC(=O)c2c[nH]c(=O)cc2C(F)(F)F)CCN1C (stereo in doubt) [Example 197, N-[5-(2-cyanopyrimidin-5-yl)-4-fluoro-2-[(3R)-3,4-dimethylpiperazin-1-yl]phenyl]-6-oxo-4-(trifluoromethyl)-1H-pyridine-3-carboxamide]
20 | 558000 |  | 36 |  |  | CC1CN(c2cc(F)c(-c3csc(N4CCOCC4)n3)cc2NC(=O)c2c[nH]c(=O)cc2C(F)(F)F)CCN1C (stereo in doubt) [Example 617, N-[4-fluoro-5-(2-morpholin-4-yl-1,3-thiazol-4-yl)-2-[(3R)-3,4-dimethylpiperazin-1-yl]phenyl]-6-oxo-4-(trifluoromethyl)-1H-pyridine-3-carboxamide]
21 | 0.712 |  | 19 |  |  | CC1CN(c2nccc(-c3cc(NC(=O)c4c[nH]c(=O)cc4C(F)(F)F)c(N4C[C@@H](C)N(C)[C@@H](C)C4)cc3F)n2)CCO1 (stereo in doubt) [Example 594, N-[4-fluoro-5-[2-[(2R)-2-methylmorpholin-4-yl]pyrimidin-4-yl]-2-[(3S,5R)-3,4,5-trimethylpiperazin-1-yl]phenyl]-6-oxo-4-(trifluoromethyl)-1H-pyridine-3-carboxamide]
